Data reported in patent US8076487B2, “Pyridone derivative and herbicide” (Kumiai Chemical Industry Co., Ltd., priority 2006, dated 2011).

Tests used:
Assay type in all cases: in vivo
[1] = system: early watergrass (Echinochloa oryzicola Vasing); assay: Test Example 1: herbicidal effect by soil application to paddy field; details: paddy field soil application; active ingredient 1,000 g per 1 hectare; wettable powder added dropwise to water surface the day after sowing; examined on the 21st day after application
In short: (§1)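 Plants were sown in flooded (3 cm) paddy soil and evaluated for herbicidal effect 21 days after soil application in a greenhouse.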

[2] = system: heartshape false pickerelweed (Monochoria vaginalis (Burm.f.) C.Presl); assay: as above; details: paddy field soil application; active ingredient 1,000 g per 1 hectare; wettable powder added dropwise to water surface the day after sowing; examined on the 21st day after application
In short: as §1

[3] = system: Japanese bulrush (Scirpus juncoides Roxb.); assay: as above; details: paddy field soil application; active ingredient 1,000 g per 1 hectare; wettable powder added dropwise to water surface the day after sowing; examined on the 21st day after application
In short: as §1

[4] = system: velvetleaf (Abutilon theophrasti medicus); assay: Test Example 3: herbicidal effect by application to upland field (foliage treatment); details: 14th day after application; for herbicidal effect (index), Velvetleaf: foliage treatment, plants grown two weeks, 1,000 g active ingredient per hectare; for herbicidal effect, Velvetleaf: foliage treatment, 1,000 g active ingredient per 1 hectare, greenhouse
Method: (§2) [table] Test Example 3 Test on Herbicidal Effect by Application to Upland Field In a 80 cm2 plastic pot, field soil was filled. Seeds of barnyardgrass (Echinochloa crus-galli (L.) P. Beauv. var. crus-galli), green foxtail (Setaria viridis (L.) P. Beauv.), velvetleaf (Abutilon theophrasti medicus), and slender amaranth (Amaranthus viridis L.) were sown and allowed to grow for two weeks in a greenhouse. Thereafter, the wettable powder prepared according to Formulation Example 1 was diluted in water and a 1,000 liter equivalent amount per 1 hectare so that the active ingredient becomes 1,000 g per 1 hectare was sprayed using a small sprayer from a top of the plants through its entire body for foliage treatment. Then, on the 14th day after the application to the plants grew in a greenhouse, the herbicidal effect was examined in accordance with a standard shown in Table 34.

[5] = system: barnyardgrass (Echinochloa crus-galli (L.) P. Beauv. var. crus-galli); assay: as above; details: 14th day after application; for herbicidal effect (index), Barnyardgrass: foliage treatment, plants grown two weeks, 1,000 g active ingredient per hectare; for herbicidal effect, Barnyardgrass: foliage treatment, 1,000 g active ingredient per 1 hectare, greenhouse
Method: as §2

[6] = system: slender amaranth (Amaranthus viridis L.); assay: as above; details: 14th day after application; for herbicidal effect (index), Slender Amaranth: foliage treatment, plants grown two weeks, 1,000 g active ingredient per hectare; for herbicidal effect, Slender Amaranth: foliage treatment, 1,000 g active ingredient per 1 hectare, greenhouse
Method: as §2

[7] = system: green foxtail (Setaria viridis (L.) P. Beauv.); assay: as above; details: 14th day after application; for herbicidal effect (index), Green Foxtail: foliage treatment, plants grown two weeks, 1,000 g active ingredient per hectare; for herbicidal effect, Green Foxtail: foliage treatment, 1,000 g active ingredient per 1 hectare, greenhouse
Method: as §2

| Structure (SMILES) | herbicidal effect, Echinochloa oryzicola Vasing [1] | herbicidal effect, Monochoria vaginalis (Burm. f.) C. Presl [2] | herbicidal effect, Scirpus juncoides Roxb. [3] | herbicidal effect (index), Velvetleaf [4] | herbicidal effect (index), Barnyardgrass [5] | herbicidal effect (index), Slender Amaranth [6] | herbicidal effect (index), Green Foxtail [7] | herbicidal effect, Velvetleaf [4] | herbicidal effect, Barnyardgrass [5] | herbicidal effect, Slender Amaranth [6] | herbicidal effect, Green Foxtail [7] |
| --- | --- | --- | --- | --- | --- | --- | --- | --- | --- | --- | --- |
| CS(=O)(=O)Cn1c(C(F)(F)F)ccc(C(=O)C2=C(O)CCCC2=O)c1=O [I-47] | 5 (90% or more of herbicidal effect and crop phytotoxicity) | 5 (90% or more of herbicidal effect and crop phytotoxicity) | 5 (90% or more of herbicidal effect and crop phytotoxicity) | 5 (90% or more of herbicidal effect and crop phytotoxicity) | 5 (90% or more of herbicidal effect and crop phytotoxicity) | 5 (90% or more of herbicidal effect and crop phytotoxicity) | 4 (70 to less than 90% of herbicidal effect and crop phytotoxicity) |  |  |  |  |
| CC(CCCCn1c(C(F)(F)F)ccc(C(=O)C2=C(O)CCCC2=O)c1=O)=C(F)F [I-28] | 5 (90% or more of herbicidal effect and crop phytotoxicity) | 5 (90% or more of herbicidal effect and crop phytotoxicity) | 4 (70 to less than 90% of herbicidal effect and crop phytotoxicity) | 5 (90% or more of herbicidal effect and crop phytotoxicity) | 5 (90% or more of herbicidal effect and crop phytotoxicity) | 5 (90% or more of herbicidal effect and crop phytotoxicity) | 5 (90% or more of herbicidal effect and crop phytotoxicity) |  |  |  |  |
| CCCc1ccc(C(=O)C2=C(O)CCCC2=O)c(=O)n1-c1ccccc1 [I-231] | 5 (90% or more of herbicidal effect and crop phytotoxicity) | 5 (90% or more of herbicidal effect and crop phytotoxicity) | 5 (90% or more of herbicidal effect and crop phytotoxicity) |  |  |  |  | 4 (70 to less than 90% of herbicidal effect and crop phytotoxicity) | 4 (70 to less than 90% of herbicidal effect and crop phytotoxicity) | 4 (70 to less than 90% of herbicidal effect and crop phytotoxicity) | 3 (50 to less than 70% of herbicidal effect and crop phytotoxicity) |
| Cc1ccc(C(=O)C2=C(O)CCCC2=O)c(=O)n1-c1ccccc1 [I-229] | 4 (70 to less than 90% of herbicidal effect and crop phytotoxicity) | 5 (90% or more of herbicidal effect and crop phytotoxicity) | 4 (70 to less than 90% of herbicidal effect and crop phytotoxicity) |  |  |  |  | 5 (90% or more of herbicidal effect and crop phytotoxicity) | 4 (70 to less than 90% of herbicidal effect and crop phytotoxicity) | 5 (90% or more of herbicidal effect and crop phytotoxicity) | 4 (70 to less than 90% of herbicidal effect and crop phytotoxicity) |
| Cn1c(C(F)(F)F)ccc(C(=O)C2=C(O)CC(C)(C)CC2=O)c1=O [II-3] | 5 (90% or more of herbicidal effect and crop phytotoxicity) | 5 (90% or more of herbicidal effect and crop phytotoxicity) | 5 (90% or more of herbicidal effect and crop phytotoxicity) |  |  |  |  | 5 (90% or more of herbicidal effect and crop phytotoxicity) | 3 (50 to less than 70% of herbicidal effect and crop phytotoxicity) | 5 (90% or more of herbicidal effect and crop phytotoxicity) | 4 (70 to less than 90% of herbicidal effect and crop phytotoxicity) |
| C=C(C)Cn1c(C(F)(F)F)ccc(C(=O)c2cnn(C)c2O)c1=O [IV-13] | 5 (90% or more of herbicidal effect and crop phytotoxicity) | 5 (90% or more of herbicidal effect and crop phytotoxicity) | 5 (90% or more of herbicidal effect and crop phytotoxicity) |  |  |  |  | 5 (90% or more of herbicidal effect and crop phytotoxicity) | 5 (90% or more of herbicidal effect and crop phytotoxicity) | 5 (90% or more of herbicidal effect and crop phytotoxicity) | 5 (90% or more of herbicidal effect and crop phytotoxicity) |
| CCn1ncc(C(=O)c2ccc(C(F)(F)F)n(C)c2=O)c1OC(C)=O [IV-208] | 5 (90% or more of herbicidal effect and crop phytotoxicity) | 5 (90% or more of herbicidal effect and crop phytotoxicity) | 5 (90% or more of herbicidal effect and crop phytotoxicity) |  |  |  |  | 5 (90% or more of herbicidal effect and crop phytotoxicity) | 5 (90% or more of herbicidal effect and crop phytotoxicity) | 5 (90% or more of herbicidal effect and crop phytotoxicity) | 4 (70 to less than 90% of herbicidal effect and crop phytotoxicity) |
| Cn1ncc(C(=O)c2ccc(C(F)(F)F)n(-c3cccc(S(C)(=O)=O)c3)c2=O)c1O [IV-74] | 4 (70 to less than 90% of herbicidal effect and crop phytotoxicity) | 4 (70 to less than 90% of herbicidal effect and crop phytotoxicity) | 5 (90% or more of herbicidal effect and crop phytotoxicity) |  |  |  |  | 5 (90% or more of herbicidal effect and crop phytotoxicity) | 4 (70 to less than 90% of herbicidal effect and crop phytotoxicity) | 5 (90% or more of herbicidal effect and crop phytotoxicity) | 4 (70 to less than 90% of herbicidal effect and crop phytotoxicity) |
| COc1ccccc1COc1c(C(=O)c2ccc(C(F)(F)F)n(C)c2=O)cnn1C [IV-193] | 5 (90% or more of herbicidal effect and crop phytotoxicity) | 5 (90% or more of herbicidal effect and crop phytotoxicity) | 5 (90% or more of herbicidal effect and crop phytotoxicity) |  |  |  |  | 5 (90% or more of herbicidal effect and crop phytotoxicity) | 3 (50 to less than 70% of herbicidal effect and crop phytotoxicity) | 5 (90% or more of herbicidal effect and crop phytotoxicity) | 4 (70 to less than 90% of herbicidal effect and crop phytotoxicity) |
| CCC(C)Nn1c(C(F)(F)F)ccc(C(=O)C2=C(O)CCCC2=O)c1=O (stereo not drawn) [I-163] | 5 (90% or more of herbicidal effect and crop phytotoxicity) | 5 (90% or more of herbicidal effect and crop phytotoxicity) | 5 (90% or more of herbicidal effect and crop phytotoxicity) |  |  |  |  | 5 (90% or more of herbicidal effect and crop phytotoxicity) | 5 (90% or more of herbicidal effect and crop phytotoxicity) | 5 (90% or more of herbicidal effect and crop phytotoxicity) | 5 (90% or more of herbicidal effect and crop phytotoxicity) |
| Cn1ncc(C(=O)c2ccc(C(F)(F)F)n(-c3ccc(Cl)cc3)c2=O)c1O [IV-63] | 5 (90% or more of herbicidal effect and crop phytotoxicity) | 5 (90% or more of herbicidal effect and crop phytotoxicity) | 5 (90% or more of herbicidal effect and crop phytotoxicity) |  |  |  |  | 5 (90% or more of herbicidal effect and crop phytotoxicity) | 4 (70 to less than 90% of herbicidal effect and crop phytotoxicity) | 5 (90% or more of herbicidal effect and crop phytotoxicity) | 4 (70 to less than 90% of herbicidal effect and crop phytotoxicity) |
| O=C(C1=C(O)C2C=CC(C2)C1=O)c1ccc(C(F)(F)F)n(CC2CCCO2)c1=O (stereo not drawn) [III-43] | 5 (90% or more of herbicidal effect and crop phytotoxicity) | 5 (90% or more of herbicidal effect and crop phytotoxicity) | 5 (90% or more of herbicidal effect and crop phytotoxicity) |  |  |  |  | 5 (90% or more of herbicidal effect and crop phytotoxicity) | 5 (90% or more of herbicidal effect and crop phytotoxicity) | 5 (90% or more of herbicidal effect and crop phytotoxicity) | 3 (50 to less than 70% of herbicidal effect and crop phytotoxicity) |
